Earlier results, collected in patent US20070293698A1, “Compositions of Allosteric Hemoglobin Modifiers and Methods of Making the Same” (ALLOS THERAPEUTICS, INC., priority 2004, published 2007).

Key:
[1] = test system: EMT6 mouse mammary tumors; conditions: efaproxiral plus oxygen breathing, Rockwell and Kelley 1998
[2] = target: hemoglobin (Homo sapiens, UniProt P68871+P69905); conditions: in vivo
[3] = test system: Lewis lung carcinoma; conditions: mice bearing the Lewis lung carcinoma; Teicher 1996
[4] = test system: mouse fibrosarcoma tumor; conditions: combination of efaproxiral and radiation relative to radiation alone; Teicher 1996, Khandelwal 1996

hemoglobin, sequence (P69905 2-142 limits assumed): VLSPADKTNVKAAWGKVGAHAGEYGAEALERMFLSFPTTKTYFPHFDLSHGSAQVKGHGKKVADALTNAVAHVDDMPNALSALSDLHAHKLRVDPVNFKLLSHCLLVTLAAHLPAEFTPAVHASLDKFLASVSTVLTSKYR
hemoglobin, sequence (P68871 2-147 limits assumed): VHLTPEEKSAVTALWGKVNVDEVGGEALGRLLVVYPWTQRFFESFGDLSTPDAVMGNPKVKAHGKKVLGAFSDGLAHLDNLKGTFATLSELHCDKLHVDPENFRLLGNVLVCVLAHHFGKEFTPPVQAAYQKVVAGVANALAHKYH

Cc1cc(C)cc(NC(=O)Cc2ccc(OC(C)(C)C(=O)O)cc2)c1 [efaproxiral, 2-[4-((((3,5-dimethylphenyl)amino)carbonyl)methyl)phenoxy]-2-methyl propionic acid]
effect of radiation in tumors ([1]; EMT6 tumors): Enhancement of the effect of radiation was observed
radiation effects in normal tissues ([1]; normal tissues): absence of enhanced radiation effects in normal tissues
tissue oxygenation [2]: enhance tissue oxygenation in vivo
effect on fractionated radiation therapy [3]: enhance fractionated radiation therapy
tumor growth [4]: tumor growth has been shown to be reduced
